Source: the supplement of paper PMC10307832

Assays:
Assay in all cases: relative viability (nuclei count vs DMSO), 5 days (fraction); higher = more cells survive
[1] = compound: Nc1ccn([C@@H]2O[C@H](CO)[C@@H](O)C2(F)F)c(=O)n1 [Gemcitabine] + Cc1nc(NC(=O)N2CCC[C@H]2C(N)=O)sc1-c1ccnc(C(C)(C)C(F)(F)F)c1 [Alpelisib] (partner 2 µM)
Summary of the method: (§1)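 Nuclei were stained with Hoechst during a one-step fixation (final 0.05% Triton X-100, 1% formaldehyde, 1 ug/ml Hoechst) carried out 5 days after dosing, then counted on 4× images. The cells, lung cancer lines in 1536-well plates, had been dosed by pin tool the day after seeding with one drug alone or a fixed anchor-drug dose plus five library-drug doses (not always all listed) in √10 steps. Relative viability is the nuclei count in treated wells divided by that in vehicle wells, and each value is the median of duplicate plates.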

[2] = compound: Nc1ccn([C@@H]2O[C@H](CO)[C@@H](O)C2(F)F)c(=O)n1 [Gemcitabine] + NC(=O)Nc1cc(-c2cccc(F)c2)sc1C(=O)N[C@H]1CCCNC1 [AZD7762] (partner 0.2 µM)
Summary of the method: as §1

[3] = compound: Nc1ccn([C@@H]2O[C@H](CO)[C@@H](O)C2(F)F)c(=O)n1 [Gemcitabine] + N=C(N)NC(=N)NCCc1ccccc1 [Phenformin] (partner 250 µM)
Summary of the method: as §1

[4] = compound: Nc1ccn([C@@H]2O[C@H](CO)[C@@H](O)C2(F)F)c(=O)n1 [Gemcitabine] + CS(=O)(=O)N1CCN(Cc2cc3nc(-c4cccc5[nH]ncc45)nc(N4CCOCC4)c3s2)CC1 [Pictilisib] (partner 1 µM)
Summary of the method: as §1

Cell Line | relative viability ([1]; first compound 0.001 µM) | relative viability ([1]; first compound 0.003162 µM) | relative viability ([1]; first compound 0.01 µM) | relative viability ([1]; first compound 0.03162 µM) | relative viability ([1]; first compound 0.1 µM) | relative viability ([2]; first compound 0.001 µM) | relative viability ([2]; first compound 0.003162 µM) | relative viability ([2]; first compound 0.01 µM) | relative viability ([2]; first compound 0.03162 µM) | relative viability ([2]; first compound 0.1 µM) | relative viability ([3]; first compound 0.001 µM) | relative viability ([3]; first compound 0.003162 µM) | relative viability ([3]; first compound 0.01 µM) | relative viability ([3]; first compound 0.03162 µM) | relative viability ([3]; first compound 0.1 µM) | relative viability ([4]; first compound 0.001 µM) | relative viability ([4]; first compound 0.003162 µM) | relative viability ([4]; first compound 0.01 µM) | relative viability ([4]; first compound 0.03162 µM) | relative viability ([4]; first compound 0.1 µM)
NCI-H2347 | 1.05 | 0.815 | 0.752 | 0.574 | 0.324 | 0.494 | 0.468 | 0.205 | 0.217 | 0.233 | 0.381 | 0.346 | 0.304 | 0.275 | 0.221 | 0.554 | 0.655 | 0.648 | 0.385 | 0.348
NCI-H2405 | 0.753 | 0.588 | 0.287 | 0.196 | 0.179 | 0.518 | 0.23 | 0.193 | 0.193 | 0.195 | 0.405 | 0.26 | 0.247 | 0.192 | 0.173 | 0.432 | 0.255 | 0.272 | 0.2 | 0.122
NCI-H3122 | 0.824 | 0.774 | 0.627 | 0.234 | 0.165 | 1.02 | 0.783 | 0.126 | 0.0803 | 0.097 | 0.436 | 0.322 | 0.165 | 0.13 | 0.121 | 0.648 | 0.595 | 0.553 | 0.265 | 0.159
PC-3 [JPC-3] | 1.13 | 0.736 | 0.649 | 0.264 | 0.248 | 0.761 | 0.482 | 0.336 | 0.35 | 0.299 | 0.503 | 0.446 | 0.365 | 0.325 | 0.287 | 0.847 | 0.61 | 0.514 | 0.33 | 0.286
PC-14 | 1.02 | 0.688 | 0.468 | 0.0826 | 0.0459 | 0.269 | 0.0798 | 0.0434 | 0.0466 | 0.0618 | 0.558 | 0.113 | 0.0527 | 0.0312 | 0.0491 | 0.684 | 0.435 | 0.139 | 0.036 | 0.0292
RERF-LC-KJ | 0.853 | 0.849 | 0.856 | 0.496 | 0.228 | 1.14 | 1 | 0.951 | 0.233 | 0.181 | 0.454 | 0.455 | 0.404 | 0.285 | 0.26 | 0.775 | 0.458 | 0.408 | 0.304 | 0.168
